Tests used:
γδ T cells [1] = test: γδ T cell proliferation rate and viability in PBMC culture depending on finasteride concentration (Example 1); format: cell-based, human; conditions: for γδ T cell proliferation rate increase compared to control (IL-2 and ZA): PBMC from donor, 14-day culture; for proliferation rate of γδ T cells compared to control (in words): 14 days
Method: For 100 cc of blood from a healthy donor collected by a medical professional and placed in a heparin tube, 25 ml of 1×DPBS and 25 ml of the blood were placed in four 50 ml conical tubes. 15 ml of Lymphoprep (Axis Shield, UK) was vertically dispensed into a new 50 ml conical tube carefully to avoid contacting the wall as much as possible, and the diluted blood was slowly added to the top of the 50 ml conical tube containing the Lymphoprep solution along the wall. The conical tube was placed in a centrifuge and centrifuged at 800×g (1,890 rpm) for 20 minutes at room temperature. In the separated four blood layers, the white buffy coat layer between Lymphoprep and plasma layers was collected, transferred to new 50 ml conical tubes (three or four), and centrifuged at 1,500 rpm (500×g) for 10 minutes at room temperature. The cells divided into three or four 50 ml conical tubes were resuspended in 45 ml of 1×DPBS and then collected into one 50 ml conical tube. The cells collected in one tube were centrifuged a total of two times at 1,250 rpm (350×g) for 10 minutes at room temperature. A culture medium was added to a stock of 1.0×10^7 cells to a final volume of 10 ml so that the cell concentration was 1.0×10^6 cells/ml, followed by pipetting two or three times, after which 1.0 ml of the cells was dispensed as day 0 samples to proceed with culture, and the remaining cells were dispensed at 1.0×10^7 cells into frozen vials, stored frozen in a nitrogen tank (LN2 tank), and used by thawing as necessary. The peripheral blood mononuclear cells (PBMC) isolated in 1-1 were continuously treated with 3 μM zoledronic acid and 10^3 IU/ml IL-2 as basic culture components for γδ T cells and with 0.01 nM and 10 nM finasteride as an active ingredient, followed by culture for a total of 14 days, and the activation and proliferation rates of γδ T cells were compared. The frozen peripheral blood mononuclear cells were thawed in a constant temperature water bath at 37° C. and then suspended in 9 ml of OpTmizer medium (Thermo-Fisher Scientific, USA) containing 10% heat inactivated fetal bovine serum (FBS, Gibco, USA). The number of cells was measured, followed by centrifugation at 400×g and 25° C. for 4 minutes. The cell pellets obtained by centrifugation were suspended in 5 ml of complete OpTmizer medium (10% fetal bovine serum+OpTmizer medium, cOpTmizer) and the number of cells was measured, after which the cells were diluted with cOpTmizer medium to a concentration of 1.0×10^6 cells/ml. […] After 2 days of re-induction, the aggregated cells were resuspended using a 1000P micropipette and the number of cells was measured. […] 7 days after the start of culture, the aggregated cells were resuspended using a 1000P micropipette or a 10 ml serological pipette and the number of cells was measured. […]

γδ T cells [2] = test: γδ T cell proliferation rate and viability in PBMC culture depending on finasteride treatment period (Example 4); format: cell-based, human
Method: Peripheral blood mononuclear cells (PBMC) were isolated from healthy donors and were cultured for a total of 14 days by continuous treatment with 10 nM finasteride as the active ingredient for each period until day 7, day 10, and day 14 from the start date of culture, in addition to the basic culture components for γδ T cells (3 μM zoledronic acid and 10^3 IU/ml IL-2), and the activation and proliferation rates of γδ T cells were compared. The frozen peripheral blood mononuclear cells were thawed in a constant temperature water bath at 37° C. and then suspended in 9 ml of OpTmizer medium (cOpTmizer, Thermo-Fisher Scientific, USA) containing 10% fetal bovine serum (FBS). The number of cells was measured, followed by centrifugation at 400×g and 25° C. for 4 minutes. The cell pellets obtained by centrifugation were suspended in 5 ml of cOpTmizer medium (Thermo-Fisher Scientific, USA) and the number of cells was measured, after which the cells were diluted with cOpTmizer medium to a concentration of 1.0×10^6 cells/ml. A total of 1.0×10^6 cells was dispensed at 1 ml per well in a 24-well plate. To stimulate and induce differentiation of γδ T cells, 10 nM finasteride, 3 μM zoledronic acid (ZA), and 100 μl of IL-2 (10^3 IU/ml) were added, followed by culture in a CO2 incubator at 37° C. for 4 days. 4 days after the start of culture, the aggregated cells were resuspended using a 1000P micropipette, and the same amount of cOpTmizer culture medium based on the cell culture fluid in culture and 10 nM finasteride and IL-2 (10^3 IU/ml) for re-induction were further added, followed by culture in a CO2 incubator at 37° C. 5 days after the start of culture, the aggregated cells were resuspended using a 1000P micropipette and the number of cells was measured. 10 nM finasteride and IL-2 (10^3 IU/ml) were further added to the same amount of cOpTmizer culture medium based on the cell culture fluid in culture, followed by culture in a CO2 incubator at 37° C. The next day, 10 nM finasteride and IL-2 (10^3 IU/ml) were further added to half of the cOpTmizer culture medium based on the cell culture fluid in culture, followed by culture in a CO2 incubator at 37° C. 7 days after the start of culture, the aggregated cells were resuspended using a 1000P micropipette or a 10 ml serological pipette and the number of cells was measured. The cells were diluted with cOpTmizer culture medium to a concentration of 0.4×10^6 cells/ml based on the cells in culture, after which 10 nM finasteride and IL-2 (10^3 IU/ml) were added to the additional cOpTmizer culture medium, followed by culture in a CO2 incubator at 37° C. for 3 days. 10 days after the start of culture, the aggregated cells were resuspended using a 1000P micropipette or a 10 ml serological pipette and the number of cells was measured. The cells were diluted with cOpTmizer culture medium to a concentration of 0.4×10^6 cells/ml based on the cells in culture, after which 10 nM finasteride and IL-2 (10^3 IU/ml) were added to the additional cOpTmizer culture medium, followed by culture in a CO2 incubator at 37° C. On day 12 after the start of the culture, the same amount of cOpTmizer culture medium based on the cell culture fluid in culture, 10 nM finasteride, and IL-2 (10^3 IU/ml) were added, followed by culture in a CO2 incubator at 37° C. 14 days after the start of culture, the aggregated cells were resuspended using a 1000P micropipette or a 10 ml serological pipette and the number of cells was measured. […]

[3] = 10 nM finasteride continuously until day 7, 14-day culture, FIG. 9

## CC(C)(C)NC(=O)[C@H]1CC[C@H]2[C@@H]3CC[C@H]4NC(=O)C=C[C@]4(C)[C@H]3CC[C@]12C [Finasteride]
γδ T cells [1]; 0.01 nM finasteride
  γδ T cell proliferation rate increase compared to control (IL-2 and ZA): 1.15 times increase
γδ T cells [1]; 10 nM finasteride
  γδ T cell proliferation rate increase compared to control (IL-2 and ZA): 1.35 times increase
γδ T cells [1]; female donors, low concentration of finasteride (0.01 nM), FIG. 2
  proliferation rate of γδ T cells compared to control (in words): increased
γδ T cells [1]; male donors, high concentration of finasteride (10 nM), FIG. 1
  proliferation rate of γδ T cells compared to control (in words): increased
γδ T cells [2]; [3]
  γδ T cell proliferation rate increase compared to control group: about 1.5 times
  γδ T cell proliferation rate increase compared to group treated continuously until day 10 or 14: at least 1.1 times
γδ T cells [2]; continuous treatment with high concentration (10 nM) of finasteride
  cell viability compared to control group: no significant difference
γδ T cells [2]; cultured for 7 days
  proportion of γδ T cells: about 70%
γδ T cells [2]; cultured for 10 days
  proportion of γδ T cells: ≥ 90%

Reference: patent US20250075180A1, “METHOD FOR EXPANSION CULTURE OF GAMMA-DELTA T CELL” (IMMUNOMAX CO., LTD., priority 2022, published 2025)
